# Source: patent US9884806B2, “Cyclic vinylogous amides as bromodomain inhibitors” (ICAHN SCHOOL OF MEDICINE AT MOUNT SINAI, priority 2013, dated 2018)
# Legend:
# [1] = target: T1, first bromodomain (BrD1) of human BRD4 (Homo sapiens, UniProt O60885); assay: Fluorescence anisotropy binding assay (competition with FITC-labeled MS417 probe); details: FITC-MS417 probe 80 nM, PBS pH 7.4, 1 hour, 25° C., read-out: BRD4_1 IC50
# T1 construct: the first bromodomain (BrD1) of human BRD4; poly-His (cleaved yes); made in house
# Summary of the method: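 BRD4 BrD1 (His tag removed by thrombin) at 0.25 to 1 μM competed against 80 nM FITC-labeled MS417 in PBS pH 7.4. Anisotropy read after 1 hour at 25° C. Ki derived from fitted IC50 by Nikolovska-Coleska-corrected Cheng-Prusoff equation, one-site competitive model.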
# BRD4_2 = target: T2, BRD4_2 (Homo sapiens, UniProt O60885); assay: Fluorescence anisotropy binding assay (competition with FITC-labeled MS417 probe), BRD4_2; details: FITC-MS417 probe 80 nM, PBS pH 7.4, 1 hour, 25° C.
# T2 construct: contains two tandem bromodomains (BrD1 and BrD2)
Structure (SMILES),melting point [°C],IC50 [1] [µM],IC50 (BRD4_2) [µM]
CC1=C(Nc2cccc(Br)c2)CCC1=O,291 to 294,–,–
COc1c(NC2=C(C)C(=O)CC2)cccc1C(=O)O,220 to 223,–,–
CC1=C(Nc2cc(Cl)c(C(=O)O)cc2Cl)CCC1=O,229 to 232,–,–
CC1=C(Nc2cc(C(=O)O)ccc2C(F)(F)F)CCCC1=O,209 to 212,–,–
CC1=C(NC2(C(F)(F)F)C=CC(C(=O)O)=CC2)CCCC1=O (stereo not drawn),229 to 231,–,–
"CC1=C(Nc2ccc(S(N)(=O)=O)cc2)CCC1=O (hydrate or solvate) [Example 01-06, 4-((2-methyl-3-oxocyclopent-1-en-1-yl)amino)benzenesulfonamide]",245 to 247,–,–
"CC1=C(Nc2ccc(C#N)cc2)CCC1=O (hydrate or solvate) [Example 01-07, 4-((2-methyl-3-oxocyclopent-1-en-1-yl)amino)benzonitrile]",204 to 206,–,–
"CC1=C(Nc2ccc(S(=O)(=O)Nc3ccccn3)cc2)CCC1=O (hydrate or solvate) [Example 01-31, 4-((2-methyl-3-oxocyclopent-1-en-1-yl)amino)-N-(pyridin-2-yl)benzenesulfonamide]",230 to 233,–,–
"CC1=C(Nc2cccc(Nc3ccccc3C)c2Cl)CCCC1=O [Example 05-80, 3-((2-chloro-3-(o-tolylamino)phenyl)amino)-2-methylcyclohex-2-enone]",–,< 1,1 to 10
"CC1=C(Nc2cccc(NC(=O)/C=C\C(=O)O)c2Cl)CCCC1=O [Example 05-85, (Z)-4-((2-chloro-3-((2-methyl-3-oxocyclohex-1-en-1-yl)amino)phenyl)-amino)-4-oxobut-2-enoic acid]",–,< 1,> 10
"CC1=C(Nc2cccc(-c3cn(Cc4ccccc4C)nn3)c2)CCC1=O [Example 06-10, 2-methyl-3-((3-(1-(2-methylbenzyl)-1H-1,2,3-triazol-4-yl)phenyl)amino)cyclopent-2-enone]",–,< 1,1 to 10
"COc1ccc(Cn2cc(-c3cccc(NC4=C(C)C(=O)CC4)c3)nn2)cc1 [Example 06-15, 3-((3-(1-(4-methoxybenzyl)-1H-1,2,3-triazol-4-yl)phenyl)amino)-2-methylcyclopent-2-enone]",–,< 1,1 to 10
CC1=C(Nc2ccc(-c3cn(Cc4ccccc4)nn3)cc2)CCC1=O [Example 06-28],–,< 1,1 to 10
CC1=C(Nc2ccc(C(=O)O)cc2)CCC1=O [Examples 02-1],–,1 to 10,> 10
CC1=C(Nc2ccc(C(=O)O)cc2Cl)CCC1=O [Examples 02-2],–,1 to 10,1 to 10
COc1cc(NC2=C(C)C(=O)CC2)ccc1C(=O)O [Examples 02-3],–,> 10,> 10
CC1=C(Nc2ccccc2C(=O)O)CCC1=O [Examples 02-4],–,> 10,> 10
CC1=C(Nc2ccc(Cl)cc2C(=O)O)CCC1=O [Examples 02-5],–,> 10,> 10
CC1=C(Nc2ccc(C(=O)O)cc2F)CCC1=O [Examples 02-6],–,1 to 10,> 10
CC1=C(Nc2ccc(C(=O)O)cc2Br)CCC1=O [Examples 02-7],–,1 to 10,> 10
CC1=C(Nc2ccc(C(=O)O)cc2I)CCC1=O [Examples 02-8],–,1 to 10,1 to 10
COC(=O)c1ccc(Br)c(NC2=C(C)C(=O)CCC2)c1 [Examples 02-9],–,> 10,> 10
C#Cc1cccc(NC2=C(C)C(=O)CC2)c1 [Examples 06-1],–,1 to 10,> 10
"CC1=C(Nc2cccc(-c3cn(-c4ccccc4)nn3)c2)CCC1=O [Examples 06-2, 2-methyl-3-((3-(1-phenyl-1H-1,2,3-triazol-4-yl)phenyl)amino)cyclopent-2-enone]",–,1 to 10,1 to 10
CC1=C(Nc2cccc(-c3cn(Cc4ccccc4F)nn3)c2)CCC1=O [Examples 06-8],–,< 1,1 to 10
